Patent US9328085B2, “Heterocyclic compounds and expansion agents for hematopoietic stem cells” (NISSAN CHEMICAL INDUSTRIES, LTD., priority 2009, dated 2016)

Assays:
CD34^+CD38^− cells = test: Expansion of CD34+CD38- cells using human cord blood-derived CD34+ cells (Assay Example 1); type: cell-based; settings: for Expansion efficiency (CD34^+CD38^− cells): 100 ng/mL SCF, 7 days, based on the number of CD34^+CD38^− cells in the absence of compound
Description: (§1) Human cord blood-derived CD34^+ cells were purchased from Lonza and plated on a 24-well plate (Corning) (10000 cells/1 mL/well). As the culture medium, StemSpan SFEM (StemCell Technologies) containing 100 ng/mL SCF (Wako Pure Chemical Industries) was used, and one of Compounds No. 1 to 72 dissolved in dimethyl sulfoxide was added in an amount of 0.1% (v/v) to a final concentration of 1 or 3 μg/mL. As a positive control, TPO (PeproTech) was used at a final concentration of 10 ng/mL.
(§2) After the cells were incubated in liquid culture at 37° C. for 7 days in a CO2 incubator (5% CO2), the number of viable cells was counted by trypan blue assay. The number of CD34^+CD38^− cells was calculated as follows. After the incubation, the cells in the liquid culture was stained with a CD34 antibody (APC, Becton, Dickinson and Company) and a CD38 antibody (PE, Becton, Dickinson and Company), then washed with PBS(−) containing 2% (v/v) FBS and stained with propidium iodide (Sigma-Aldrich Japan) added to a final concentration of 5 μg/mL. The stained cells were analyzed with a BD FACSCANTO™ II flow cytometer (Becton, Dickinson and Company) to determined the proportions of CD34^+ cells and CD34^+CD38^− cells, which was multiplied by the number of viable cells to calculate the numbers of CD34^+ cells and CD34^+CD38^− cells.
(§3) The expansion efficiencies in the presence of 1 or 3 μg/mL of compounds based on the number of CD34^+ cells in the absence of them are shown in Tables 3-1 and 3-2 on a scale of A for expansion efficiencies of 6 or greater, B for expansion efficiencies of at least 4 and less than 6, and C for expansion efficiencies of at least 2 and less than 4. The expansion efficiencies in the presence of 1 or 3 μg/mL of compounds based on the number of CD34^+CD38^− cells in the absence of them are shown in Tables 4-1 and 4-2 on a scale of A for expansion efficiencies of 10 or greater, B for expansion efficiencies of at least 5 and less than 10, and C for expansion efficiencies of at least 3 and less than 5. Further, in Table 3, the compounds with an expansion efficiency twice or more greater than that of TPO are marked with O.

CD34^+ cells = test: Expansion of CD34+ cells using human cord blood-derived CD34+ cells (Assay Example 1); type: cell-based; settings: 100 ng/mL SCF, 7 days, based on the number of CD34^+ cells in the absence of compound
Description: as §1, §2, §3

| SMILES | Expansion efficiency (CD34^+CD38^− cells) (CD34^+CD38^− cells; 3 μg/mL compound) | Expansion efficiency (CD34^+ cells) (CD34^+ cells; 3 μg/mL compound) | Expansion efficiency (CD34^+CD38^− cells) (CD34^+CD38^− cells; 1 μg/mL compound) | Expansion efficiency (CD34^+ cells) (CD34^+ cells; 1 μg/mL compound) | Comparison with TPO (CD34^+CD38^− cells; 1 μg/mL compound vs TPO 10 ng/mL, CD34^+CD38^− cells) |
| --- | --- | --- | --- | --- | --- |
| CC(=NNC(=O)c1ccc(C(=O)NCc2ccc(C(=O)NCC3CCCO3)cc2)s1)c1csc(-c2ccc(Cl)c(Cl)c2)c1O (stereo not shown) [compound 10] | A (A for expansion efficiencies of 10 or greater) | B (B for expansion efficiencies of at least 4 and less than 6) | – | – | – |
| CC(=NNC(=O)c1ccc(C(=O)NCc2ccc(C(=O)NCc3ccco3)cc2)s1)c1csc(-c2ccc(Cl)c(Cl)c2)c1O [compound 7] | B (B for expansion efficiencies of at least 5 and less than 10) | C (C for expansion efficiencies of at least 2 and less than 4) | – | – | – |
| CC(=O)NCc1ccc(CNC(=O)c2ccc(C(=O)NN=C(C)c3csc(-c4ccc(C(F)(F)F)cc4)c3O)s2)cc1 [compound 55] | – | – | A (A for expansion efficiencies of 10 or greater) | A (A for expansion efficiencies of 6 or greater) | – |
| CC(=NNC(=O)c1ccc(C(=O)NCc2ccc(CC(N)=O)cc2)s1)c1csc(-c2ccc(C(F)(F)F)cc2)c1O [compound 69] | A (A for expansion efficiencies of 10 or greater) | A (A for expansion efficiencies of 6 or greater) | – | – | – |
| CCCCCCOCCOCCNC(=O)c1ccc(CNC(=O)c2ccc(C(=O)NN=C(C)c3csc(-c4ccc(Cl)c(Cl)c4)c3O)s2)cc1 [compound 37] | A (A for expansion efficiencies of 10 or greater) | C (C for expansion efficiencies of at least 2 and less than 4) | – | – | – |
| CC(=NNC(=O)c1ccc(C(=O)NCc2ccc(C(=O)NCC3CCCO3)cc2)s1)c1csc(-c2ccc(Br)cc2)c1O (stereo not shown) [compound 12] | A (A for expansion efficiencies of 10 or greater) | A (A for expansion efficiencies of 6 or greater) | – | – | – |
| CC(=NNC(=O)c1ccc(C(=O)NCc2ccc(C(=O)NCCOCCO)cc2)cc1)c1csc(-c2ccc(C(C)(C)C)cc2)c1O [compound 44] | A (A for expansion efficiencies of 10 or greater) | C (C for expansion efficiencies of at least 2 and less than 4) | – | – | – |
| CCCCOCCOCCNC(=O)c1ccc(CNC(=O)c2ccc(C(=O)NN=C(C)c3csc(-c4ccc(Br)cc4)c3O)s2)cc1 [compound 36] | B (B for expansion efficiencies of at least 5 and less than 10) | C (C for expansion efficiencies of at least 2 and less than 4) | – | – | – |
| CC(=NNC(=O)c1ccc(C(=O)NCc2ccc(C(=O)NCCOCCO)cc2)s1)c1csc(-c2ccc(OC(F)(F)F)cc2)c1O [compound 64] | – | – | A (A for expansion efficiencies of 10 or greater) | A (A for expansion efficiencies of 6 or greater) | ∘ |
| CC(=NNC(=O)c1ccc(C(=O)NCc2ccc(C(=O)NCC3CCCO3)cc2)s1)c1csc(-c2ccc(C(C)(C)C)cc2)c1O (stereo not shown) [compound 11] | A (A for expansion efficiencies of 10 or greater) | A (A for expansion efficiencies of 6 or greater) | – | – | – |
| CC(=NNC(=O)c1cccc(C(=O)NCc2ccc(C(=O)NCCOCCO)cc2)n1)c1csc(-c2ccc(C(C)(C)C)cc2)c1O [compound 50] | C (C for expansion efficiencies of at least 3 and less than 5) | – | – | – | – |
| CC(=NNC(=O)c1ccc(C(=O)NCc2ccc(C(=O)NCCN3CCN(C(=O)OC(C)(C)C)CC3)cc2)s1)c1csc(-c2ccc(Br)cc2)c1O [compound 27] | C (C for expansion efficiencies of at least 3 and less than 5) | – | – | – | – |
| CC(=NNC(=O)c1ccc(C(=O)NCc2ccc(C(=O)NCCOCCO)cc2)nc1)c1csc(-c2ccc(C(C)(C)C)cc2)c1O [compound 47] | B (B for expansion efficiencies of at least 5 and less than 10) | – | – | – | – |
| CC(=NNC(=O)c1ccc(C(=O)NCc2ccc(C(=O)NCc3ccco3)cc2)s1)c1csc(-c2ccc(C(C)(C)C)cc2)c1O [compound 8] | B (B for expansion efficiencies of at least 5 and less than 10) | – | – | – | – |
